Reference: patent publication US20110312894A1 (priority 2009, published 2011)
Read-outs that look alike come from different tables or passages of the source.

What was measured:
[1] = target: T1, heteromeric α7β2-nAChRs on MS/DB cholinergic neurons (Rattus norvegicus, UniProt P12390+Q05941); assay type: cell-based; conditions: for form-dependent suppression of choline-induced responses: 1 nM of the peptide form
T1 construct: functional nAChRs naturally expressed on rat MS/DB cholinergic neurons; endogenous in cells; host or cells: acutely dissociated MS/DB neurons of 2-4 week-old Wistar rats
Protocol: (§1) Briefly, each postnatal 2-4 week-old Wistar rat or mouse (wild-type C57/B16 or nAChR β2 knockout mice on a C57/B16 background kindly provided by Dr. Marina Picciotto, Yale University) was anesthetized using isoflurane, and the brain was rapidly removed. Several 400-μm coronal slices, which contained the medial septum/diagonal band (MS/DB) or the ventral tegmental area (VTA), were cut using a vibratome (Vibratorne 1000 plus; Jed Pella Inc., Redding, Calif.) in cold (2-4° C.) artificial cerebrospinal fluid (ACSF) and continuously bubbled with carbogen (95% O2-5% CO2). The slices were then incubated in a pre-incubation chamber (Warner Ins., Holliston, Mass.) and allowed to recover for at least 1 h at room temperature ([…]) in oxygenated ACSF. Thereafter, the slices were treated with pronase (1 mg/6 mL) at 31° C. for 30 min and subsequently treated with the same concentration of thermolysin for another 30 min. The MS/DB or VTA region was micropunched out from the slices using a well-polished needle. […] In particular, perforated-patch recording was used to maintain the intracellular ATP concentration at a physiological level. To prepare for perforated-patch whole-cell recording, glass microelectrodes (GC-1.5; Narishige, East Meadow, N.Y.) were fashioned on a two-stage vertical pipette puller (P-830; Narishige, East Meadow, N.Y.), and the resistance of the electrode was 3 to 5 MΩ when filled with the internal solution. A tight seal (>2 GΩ) was formed between the electrode tip and the cell surface, which was followed by a transition from on-cell to whole-cell recording mode due to the partitioning of amphotericin B into the membrane underlying the patch. After whole-cell formation, an access resistance lower than 60 MΩ was acceptable during perforated-patch recordings in current-clamp mode, and an access resistance lower than 30 MΩ was acceptable during voltage-clamp recordings. The series resistance was not compensated in the experiments using dissociated neurons. Under current-clamp configuration, membrane potentials were measured using a patch-clamp amplifier (200B; Axon Instruments, Foster City, Calif.). […] All experiments were performed at room temperature (22±1° C.).

[2] = target: T2, homomeric α7-nAChRs on VTA DAergic neurons (Rattus norvegicus, UniProt Q05941); assay type: cell-based
T2 construct: native nAChR responses in rat MS/DB or VTA neurons; endogenous in cells; host or cells: acutely dissociated VTA dopaminergic neurons of Wistar rats
Protocol: as §1

[3] = target: T3, α7β2-nAChRs on MS/DB neurons from wild-type mice (Mus musculus, UniProt P49582+Q9ERK7); assay: Whole-cell current recordings, MS/DB neurons from wild-type mice; assay type: cell-based; conditions: 1 nM peptide
T3 construct: heteromeric α7β2-nAChRs exist in rodent basal forebrain cholinergic neurons; endogenous in cells; host or cells: acutely dissociated MS/DB neurons of wild-type C57/Bl6 mice
Protocol: (§3) Briefly, each postnatal 2-4 week-old Wistar rat or mouse (wild-type C57/B16 or nAChR β2 knockout mice on a C57/B16 background kindly provided by Dr. Marina Picciotto, Yale University) was anesthetized using isoflurane, and the brain was rapidly removed. Several 400-μm coronal slices, which contained the medial septum/diagonal band (MS/DB) or the ventral tegmental area (VTA), were cut using a vibratome (Vibratorne 1000 plus; Jed Pella Inc., Redding, Calif.) in cold (2-4° C.) artificial cerebrospinal fluid (ACSF) and continuously bubbled with carbogen (95% O2-5% CO2). The slices were then incubated in a pre-incubation chamber (Warner Ins., Holliston, Mass.) and allowed to recover for at least 1 h at room temperature (22±PC) in oxygenated ACSF. Thereafter, the slices were treated with pronase (1 mg/6 mL) at 31° C. for 30 min and subsequently treated with the same concentration of thermolysin for another 30 min. The MS/DB or VTA region was micropunched out from the slices using a well-polished needle. […] In particular, perforated-patch recording was used to maintain the intracellular ATP concentration at a physiological level. […] Under current-clamp configuration, membrane potentials were measured using a patch-clamp amplifier (200B; Axon Instruments, Foster City, Calif.). […]

[4] = target: T4, α7-containing-nAChRs on MS/DB neurons from nAChR β2 knockout mice (Mus musculus, UniProt P49582); assay type: cell-based
T4 construct: endogenous in cells; host or cells: acutely dissociated MS/DB neurons of nAChR β2 subunit knockout mice (C57/Bl6 background)
Protocol: as §3

[5] = system: GABAA receptors; assay: GABA-induced whole-cell currents in rat MS/DB cholinergic neurons; assay type: cell-based; conditions: 1 nM peptide; 0.1 mM GABA
Protocol: (§2) Briefly, each postnatal 2-4 week-old Wistar rat or mouse (wild-type C57/B16 or nAChR β2 knockout mice on a C57/B16 background kindly provided by Dr. Marina Picciotto, Yale University) was anesthetized using isoflurane, and the brain was rapidly removed. Several 400-μm coronal slices, which contained the medial septum/diagonal band (MS/DB) or the ventral tegmental area (VTA), were cut using a vibratome (Vibratorne 1000 plus; Jed Pella Inc., Redding, Calif.) in cold (2-4° C.) artificial cerebrospinal fluid (ACSF) and continuously bubbled with carbogen (95% O2-5% CO2). The slices were then incubated in a pre-incubation chamber (Warner Ins., Holliston, Mass.) and allowed to recover for at least 1 h at room temperature ([…]) in oxygenated ACSF. Thereafter, the slices were treated with pronase (1 mg/6 mL) at 31° C. for 30 min and subsequently treated with the same concentration of thermolysin for another 30 min. The MS/DB or VTA region was micropunched out from the slices using a well-polished needle. […] In particular, perforated-patch recording was used to maintain the intracellular ATP concentration at a physiological level. […] Under current-clamp configuration, membrane potentials were measured using a patch-clamp amplifier (200B; Axon Instruments, Foster City, Calif.). […]

[6] = system: ionotropic glutamate receptors; assay: Glutamate-induced whole-cell currents in rat MS/DB cholinergic neurons; assay type: cell-based; conditions: 1 nM peptide; 1 mM glutamate
Protocol: as §2

[7] = system: MS/DB neurons; assay: Current-clamp recording of spontaneous action potential firing in dissociated MS/DB neurons; assay type: cell-based, rat; conditions: 1 μM
Protocol: as §3

[8] = target: T5, heterologously expressed heteromeric α7β2-nAChRs (Rattus norvegicus, UniProt P12390+Q05941); assay type: cell-based; conditions: oocytes; 10 mM choline; compared with homomeric α7-nAChR
T5 construct: expressed in transfected cells; host or cells: Xenopus laevis oocytes injected with cRNA (vector pGEMHE)
Protocol: The frogs were then allowed to recover from surgery before being returned to the incubation tank. The lobes were cut into small pieces and digested with 0.08 Wunsch U/mL liberase blendzyme 3 (Roche Applied Science, Indianapolis, Ind.) with constant stirring at room temperature for 1.5-2 h. The dispersed oocytes were thoroughly rinsed with incubation solution. Stage VI oocytes were selected and incubated at 16° C. before injection. Micropipettes used for injection were pulled from borosilicate glass (Drummond Scientific, Broomall, Pa.). cRNAs encoding α7 or β2 at proper dilution were injected into oocytes separately or in different ratios using a Nanoject microinjection system (Drummond Scientific, Broomall, Pa.) at a total volume of ˜20-60 nL.
The chamber was grounded through an agarose bridge. The oocytes were voltage-clamped at −70 mV to measure ACh (or choline)-induced currents using GeneClamp 500B (Axon Instruments, Foster City, Calif.).

T2 sequence (Q05941 23-502): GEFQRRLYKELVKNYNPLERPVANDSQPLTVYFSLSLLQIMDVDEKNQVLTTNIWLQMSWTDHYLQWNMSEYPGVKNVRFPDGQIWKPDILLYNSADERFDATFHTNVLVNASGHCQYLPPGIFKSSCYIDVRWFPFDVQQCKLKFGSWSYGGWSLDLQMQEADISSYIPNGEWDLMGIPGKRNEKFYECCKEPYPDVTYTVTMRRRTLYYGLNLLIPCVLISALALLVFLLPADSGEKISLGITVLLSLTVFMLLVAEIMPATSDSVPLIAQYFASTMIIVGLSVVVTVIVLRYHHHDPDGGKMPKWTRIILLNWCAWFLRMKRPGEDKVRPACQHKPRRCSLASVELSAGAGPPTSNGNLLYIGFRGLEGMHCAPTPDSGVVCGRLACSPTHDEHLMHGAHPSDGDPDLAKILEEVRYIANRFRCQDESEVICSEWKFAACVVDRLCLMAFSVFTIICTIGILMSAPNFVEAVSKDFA
T1 sequence (Q05941 23-502): as above
T1 sequence (P12390 25-500): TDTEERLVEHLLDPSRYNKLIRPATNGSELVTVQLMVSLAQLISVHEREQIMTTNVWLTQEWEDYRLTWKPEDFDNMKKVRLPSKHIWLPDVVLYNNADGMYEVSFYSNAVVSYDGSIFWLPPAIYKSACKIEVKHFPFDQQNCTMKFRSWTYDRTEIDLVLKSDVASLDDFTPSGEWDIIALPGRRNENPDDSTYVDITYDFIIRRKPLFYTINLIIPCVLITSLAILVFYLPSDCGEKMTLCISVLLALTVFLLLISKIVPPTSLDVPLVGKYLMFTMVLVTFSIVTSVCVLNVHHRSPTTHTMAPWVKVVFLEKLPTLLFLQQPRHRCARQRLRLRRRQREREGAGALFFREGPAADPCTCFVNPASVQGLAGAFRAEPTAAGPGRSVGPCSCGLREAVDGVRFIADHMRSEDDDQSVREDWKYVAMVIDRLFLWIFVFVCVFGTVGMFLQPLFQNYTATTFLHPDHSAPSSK
T4 sequence (P49582 23-502): as the sequence (Q05941 23-502) above, with A402T counted along it
T5 sequence (Q05941 23-502): as the sequence (Q05941 23-502) above
T5 sequence (P12390 25-500): as the sequence (P12390 25-500) above
T3 sequence (P49582 23-502): as the sequence (Q05941 23-502) above, with A402T counted along it
T3 sequence (Q9ERK7 26-501): as the sequence (P12390 25-500) above, with A350T, V371M, R379Q, T383A, P387L, V391M, V449I, P468S counted along it

With “Aβ1-42: amyloid beta peptides at positions 1-42 of the amyloid precursor protein, purchased from rPeptide” the “effect on choline-induced currents” value [1] was “progressively inhibited with time”, the “effect on choline-induced currents” value ([1]; 0.1 nM peptide, MS/DB neurons) was “negligible” and the “effect on ACh-induced current” value ([1]; 1 nM peptide, 1 mM ACh, MS/DB neurons) was “evident”. The “reversibility of inhibition of choline responses” value ([1]; 1 nM, recovery after 6 min of peptide washout) was “reversibly”, the “effect on choline-induced currents” value ([2]; 1 nM peptide, VTA DAergic neurons) was “not sensitive” and the “effect on choline-induced currents” value [3] was “did suppress”. For the same molecule, the “effect on choline-induced currents” value ([4]; 1 nM peptide, MS/DB neurons from β2−/− mice) was “failed to suppress”, the “inhibition of GABA-induced currents” value [5] was “insensitive” and the “inhibition of glutamate-induced currents” value [6] was “insensitive”.

In the case of “monomeric Aβ1-42: Aβ1-42 reconstituted in DMSO, predominant monomeric form”, the “form-dependent suppression of choline-induced responses” value (“form-dependent suppression” below) ([1]; MS/DB neurons) is reported as “failed to suppress”.

`C[C@@H]1O[C@H](C[N+](C)(C)C)C[C@H]1O` [muscarine] was tested, and the “effect on spontaneous action potential firing” value [7] was “insensitive”.

For “fibrillar Aβ: Aβ1-42 stock incubated at 37° C. for 48 h at pH 6.0, predominantly fibrillar form”, the “form-dependent suppression” value ([1]; MS/DB neurons) was “weaker inhibitory effect”.

For `CO[C@H]1CC=C2CCN3CCC4=C(CC(=O)OC4)[C@]23C1` [DHβE, dihydro-β-erythroidine], the “Hill coefficient, inhibition of choline-induced currents” value ([1]; 10 mM choline, MS/DB neurons, n=8) was 0.9, the IC50 ([1]; 10 mM choline, MS/DB neurons, n=8, read-out: IC50, inhibition of choline-induced currents) was 170 nM and the “potency difference as inhibitor of choline-induced current, MS/DB vs VTA neurons” value ([1]; MS/DB neurons compared with VTA neurons) was about 500 fold. For the same molecule, the “Hill coefficient, inhibition of choline-induced currents” value ([2]; 10 mM choline, VTA neurons) was 0.3, the IC50 ([2]; 10 mM choline, VTA neurons, n=7, read-out: IC50, inhibition of choline-induced currents) was over 100000 nM and the “sensitivity to functional blockade, α7β2- vs α7-nAChR” value [8] was “more sensitive”. For the same molecule, the “sensitivity of choline-induced currents to antagonist” value ([4]; MS/DB neurons from β2 knockouts compared with wild-type) was “lower sensitivity”.

`CNCC/C=C/c1cccnc1` [RJR-2403] was tested, and the “agonist-evoked inward current compared with ACh-induced response” value [1] was “insensitive” and the “agonist-evoked current compared with ACh-induced response” value [2] was “mimicked”.

“oligomeric Aβ1-42: Aβ1-42 reconstituted in distilled water, predominantly oligomeric form” was tested, and the “form-dependent suppression” value ([1]; MS/DB neurons) was “greatest suppression”.
